This is an account of results in patent US20070078123A1, “1-Thia-3-aza-dibenzo[e,h]azulenes for the treatment of central nervous system diseases and disorders” (PILVA-ISTRAZIVACKI INSTITUT D.O.O., priority 2003, published 2007).

One may read the IC50 as the concentration at which inhibition is half-maximal.

The target of assay [1] is T1, 5-HT2A receptor (Homo sapiens, UniProt P28223).
T1 construct: expressed in transfected cells; host or cells: CHO-K1 (or COS-7) cells; alternatively human cortex tissue
In words: Radioligand binding assay for 5-HT2A receptor ([3H]-ketanserin competitive binding). As to conditions: human cortex or recombinant 5-HT2A receptor expressed in CHO-K1 cells, read-out: binding affinity to 5-HT2A serotonin receptor expressed as IC50 value. The procedure: (§1) The effect of the compounds of the present invention on the neurochemical steady state was determined by in vitro investigations such as a radionuclide-marked radioligand binding assay for 5-HT2A (Bonhaus D. W. Br. J. Pharmacol. 1995, 115:622; Saucier C. J. Neurochem. 1997, 68:1998) and 5-HT2C receptors (Wolf W. A. J. Neurochem. 1997, 69:1449), in vitro binding assay for σ1 receptor (Thomson W. and Donn R. Arthritis Res. 2002, 4: 302-306) and by in vivo investigations in a tail suspension test (Vogel H. G. and Vogel W. H. Drug Discovery and Evaluation Pharmacological Assays, Springer 1997, 304), in amphethamine-induced hyperlocomotion in mice (Millan M. J. et al, 1998 J Pharmacol. Exp. 7her. 287: 167-186), in a forced swim test in mice (Porsolt R. D. et al. Arch. Int. Pharmacodyn. 1977, 229:327-336), in meta-chlorophenyl piperazine (m-CPP) test on rats (Drug Dev. Res. 1989, 18:119-144), and in apomorphine, tryptamine and norepinephrine (ATN) test in rats (Arch. Int. Pharmacodyn. 1977, 227:238-253). […]
(§2) During incubation the radioligand bound to the receptor. When a binding balance was achieved, the receptors to which the radioligand was bound were separated from those to which said ligand was not bound, and the radioactivity of the receptor/radioligand complex was measured. […]

In assay [2] the target is T2, 5-HT2C receptor (Homo sapiens, UniProt P28335).
T2 construct: expressed in transfected cells; host or cells: CHO-K1 (or COS-7) cells; alternatively choroid plexus tissue
T2 sequence (P28335 33-458): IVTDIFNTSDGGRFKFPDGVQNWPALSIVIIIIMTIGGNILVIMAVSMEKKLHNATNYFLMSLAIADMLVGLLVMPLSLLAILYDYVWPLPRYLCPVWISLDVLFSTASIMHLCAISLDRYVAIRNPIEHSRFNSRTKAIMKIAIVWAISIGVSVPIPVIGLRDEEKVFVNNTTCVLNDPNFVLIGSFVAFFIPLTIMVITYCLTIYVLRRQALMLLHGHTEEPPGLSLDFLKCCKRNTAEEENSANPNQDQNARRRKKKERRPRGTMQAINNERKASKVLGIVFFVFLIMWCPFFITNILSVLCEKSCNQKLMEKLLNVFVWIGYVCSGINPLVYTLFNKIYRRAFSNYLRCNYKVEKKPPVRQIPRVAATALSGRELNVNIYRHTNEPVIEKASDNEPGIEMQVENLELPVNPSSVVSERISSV
The assay can be described thus: Radioligand binding assay for 5-HT2C receptor ([3H]-mesulergine competitive binding). Conditions: choroid plexus or recombinant 5-HT2C receptor expressed in CHO-K1 cells, read-out: binding affinity to 5-HT2C serotonin receptor expressed as IC50 value. The procedure:
as §1, §2

T1 sequence (P28223 whole entry): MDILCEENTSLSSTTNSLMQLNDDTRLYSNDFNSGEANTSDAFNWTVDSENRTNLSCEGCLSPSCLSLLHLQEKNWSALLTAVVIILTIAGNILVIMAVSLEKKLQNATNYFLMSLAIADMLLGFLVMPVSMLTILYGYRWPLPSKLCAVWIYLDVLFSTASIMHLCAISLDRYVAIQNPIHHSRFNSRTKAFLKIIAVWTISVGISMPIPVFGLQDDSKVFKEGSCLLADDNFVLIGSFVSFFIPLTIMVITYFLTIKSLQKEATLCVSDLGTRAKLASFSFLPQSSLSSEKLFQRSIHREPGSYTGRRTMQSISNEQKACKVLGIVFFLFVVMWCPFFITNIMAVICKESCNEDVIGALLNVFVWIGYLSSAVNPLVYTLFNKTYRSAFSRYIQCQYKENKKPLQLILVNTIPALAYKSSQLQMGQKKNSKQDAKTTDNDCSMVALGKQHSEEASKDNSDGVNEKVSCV

`CN(C)CCCOCc1nc2c(s1)-c1ccccc1Oc1ccc(Cl)cc1-2` [[3-(5-chloro-8-oxa-1-thia-3-aza-dibenzo[e,h]azulen-2-ylmethoxy)-propyl]-dimethyl-amine]: the IC50 in assay [1] and in assay [2] was less than 200 nM throughout.
